The source of these data is ChEMBL document CHEMBL1201862, “PubChem BioAssay data set” (2004).

Common to all, as to test: growth of human tumour cells (NCI), 48 h
The test system of assay [1] is OVCAR-4.
The subject of assay [2] is LOX IMVI.
Assay [3] relates to SF-295.
Assay [4] has as its system HOP-18.
The test system of assay [5] is U-251.
Assay [6] relates to CAKI-1.
The test system of assay [7] is SR.
For assay [8], the system named is EKVX.
In assay [9] the test system is SNB-78.
In assay [10] the test system is LXFL 529.
The test system of assay [11] is KM-20L2.
Assay [12] relates to 786-0.
Assay [13] concerns HOP-92.
Assay [14] concerns MCF7.
For assay [15], the system named is PC-3.
The subject of assay [16] is Hs-578T.
Assay [17] concerns T47D.
The subject of assay [18] is BT-549.
The subject of assay [19] is MDA-N.
The subject of assay [20] is MDA-MB-231.

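Dose response: 5 concentrations. Exposure: 48 h. Format: 96-well plates. Endpoint: linear interpolation; highest concentration if not reached. GI50 = concentration required for 50% inhibition of growth.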 Activity calls are given as the source filed them. Rule as the data show it: active = GI50 up to about 1.1 µM and inactive = higher.

Consider `CCOC(=O)C1CCn2c(nc3c2c(=O)n(C)c(=O)n3C)S1` (stereo unspecified), for which the GI50 in assay [1], in assay [2], in assay [3], in assay [4], in [5] and in [6] was > 100 µM (inactive) in each case. The GI50 in [7] is 77.1 µM (inactive); in assay [8], > 100 µM (inactive); in [9] it was > 100 µM (inactive); in assay [10], > 100 µM (inactive); in assay [11], > 100 µM (inactive).

Regarding `CC1CC(C[N+](=O)[O-])CC2(C1)OCCO2` (stereo unspecified), the GI50 in assay [1], in [4], in [5], in [6], in assay [7] and in assay [9] was > 100 µM (inactive) each time. Further, the GI50 in [10], in assay [12] and in assay [11] was > 100 µM (inactive) each time.

For `Cc1cc(=O)oc2c1cc1ccc3cccc4ccc2c1c34`, the GI50 is > 100 µM (inactive) in assay [2]; 40.4 µM (inactive) in [3]; 31.5 µM (inactive) in assay [13]; > 100 µM (inactive) in assay [4]; 41.2 µM (inactive) in assay [5]; > 100 µM (inactive) in assay [6]. Further, the GI50 is > 100 µM (inactive) in assay [8], 83 µM (inactive) in [9], > 100 µM (inactive) in [10] and > 100 µM (inactive) in assay [11].

For the compound `O=C(OCCOC(=O)c1ccc2c(c1)C1(SCCS1)c1ccccc1-2)c1ccc2c(c1)C1(SCCS1)c1ccccc1-2`, the GI50 was > 100 µM (inactive) in [1]; > 100 µM (inactive) in assay [2]; > 100 µM (inactive) in [3]; 27.5 µM (inactive) in assay [4]; > 100 µM (inactive) in assay [5]; > 100 µM (inactive) in assay [6]. Also, the GI50 in assay [7], in assay [8], in [9], in [10] and in assay [11] was > 100 µM (inactive) throughout.

For the compound `CC1CC2=C(S(=O)(=O)c3ccccc3)CC(S(=O)(=O)c3ccccc3)(S(=O)(=O)c3ccccc3)CC21` (stereo unspecified), the GI50 in assay [1] is > 100 µM (inactive); in [2], > 100 µM (inactive); in assay [3], > 100 µM (inactive); in assay [4], > 100 µM (inactive); in assay [5] it was 72.6 µM (inactive); in assay [7] it was > 100 µM (inactive). Further, the GI50 in assay [8] and in assay [11] was > 100 µM (inactive) throughout.

With `CC[C@H]1CC(=O)c2c(cc3c(c2O)C(=O)c2ccccc2C3=O)[C@@]1(C#N)C(=O)OC(C)(C)C`, the GI50 in assay [2] was 3.54 µM (inactive); in assay [3], 4.47 µM (inactive); in assay [13], 9.31 µM (inactive); in [4] it was 3.52 µM (inactive); in assay [5], 3.48 µM (inactive); in assay [7], 3.66 µM (inactive). For the same compound, the GI50 is 4.94 µM (inactive) in [8]; 4.89 µM (inactive) in [9]; 3.25 µM (inactive) in [10]; 4.15 µM (inactive) in assay [12]; 4.08 µM (inactive) in [11].

For the compound `O=C(NN1C(=O)CSC1c1cccc(F)c1)c1ccncc1` (stereo unspecified), the GI50 is > 100 µM (inactive) in assay [1]; > 100 µM (inactive) in assay [2]; > 100 µM (inactive) in assay [3]; < 0.01 µM (active) in assay [4]; > 100 µM (inactive) in assay [5]; > 100 µM (inactive) in assay [6]. For the same compound, the GI50 in [8], in assay [9], in assay [10] and in assay [11] was > 100 µM (inactive) throughout.

With `Cc1ccc(C2CC(c3cccc([N+](=O)[O-])c3)=Nc3ccccc3S2)cc1` (stereo unspecified), the GI50 was 44.6 µM (inactive) in [1]; 21.6 µM (inactive) in assay [2]; 50.7 µM (inactive) in [3]; 7.01 µM (inactive) in assay [13]; 15.4 µM (inactive) in assay [4]; 27.5 µM (inactive) in [5]. Besides, the GI50 in [6] was 24.3 µM (inactive); in assay [7] it was 25.8 µM (inactive); in [8] it was > 88.1 µM (inactive); in [9], 23.2 µM (inactive); in assay [10], 27.2 µM (inactive); in assay [12], 21.8 µM (inactive). For the same compound, the GI50 in assay [11] was 44.5 µM (inactive).

Regarding `COC1=CC(=O)C2(C=C1OC)OC[C@H]1Oc3c(ccc4c3C=CC(C)(C)O4)C(=O)[C@H]12` (stereo partly specified), the GI50 in assay [2] is 78.9 µM (inactive); in assay [13], 7.64 µM (inactive); in assay [5] it was 56.2 µM (inactive); in [8], 27.4 µM (inactive); in assay [9], 37.8 µM (inactive); in assay [10] it was 33.3 µM (inactive). Moreover, the GI50 was 68.1 µM (inactive) in assay [12] and 46.1 µM (inactive) in assay [11].

For the compound `OC1CCOc2ccccc21` (stereo unspecified), the GI50 is > 100 µM (inactive) in assay [1]; > 100 µM (inactive) in assay [2]; 56.2 µM (inactive) in assay [4]; > 100 µM (inactive) in assay [5]; > 100 µM (inactive) in [6]; > 100 µM (inactive) in assay [7]. The GI50 in assay [8], in assay [10] and in assay [11] was > 100 µM (inactive) in each case.

Regarding `Cc1ccc(/N=N/C(C(=O)c2ccccc2)C(=O)c2ccccc2)cc1`, the GI50 is 13.1 µM (inactive) in assay [1]; 24.7 µM (inactive) in assay [3]; 13.6 µM (inactive) in assay [13]; 18 µM (inactive) in [5]; 27.4 µM (inactive) in assay [6]; 30.7 µM (inactive) in assay [8]. The GI50 in [10] was 14.5 µM (inactive); in assay [12], 16.7 µM (inactive); in assay [11], 25.3 µM (inactive).

On to `O=C1CCC(NC(=O)Cc2ccc(O)cc2)C(=O)N1` (stereo unspecified), for which the GI50 in [1], in [2], in assay [3], in assay [13], in [4] and in assay [5] was > 2500 µM (inactive) in each case. In addition, the GI50 in assay [6], in [8], in [9], in assay [10] and in assay [11] was > 2500 µM (inactive) each time.

For the compound `CN(C)CCNC(=O)c1cc2ccccc2c2nc3ccccc3nc12`, the GI50 is 0.792 µM (active) in assay [1]; 0.413 µM (active) in assay [2]; 0.575 µM (active) in assay [3]; 5.82 µM (inactive) in assay [4]; 0.986 µM (active) in [5]; 2.67 µM (inactive) in [6]. The GI50 is 0.163 µM (active) in assay [7]; 2.06 µM (inactive) in [8]; 3.55 µM (inactive) in assay [9]; 1.43 µM (inactive) in assay [10]; 2.43 µM (inactive) in [12]; 0.946 µM (active) in assay [11].

Regarding `COc1ccc(C(=O)NNC(=O)c2nsc3ccccc23)cc1`, the GI50 in assay [1] is 68.9 µM (inactive); in assay [2], 58.2 µM (inactive); in assay [13], 40.1 µM (inactive); in assay [5], 41.1 µM (inactive); in assay [8] it was 27.2 µM (inactive); in assay [9], > 100 µM (inactive). Further, the results for the GI50 in assay [10] and in assay [11] were > 100 µM (inactive) and 35.9 µM (inactive), respectively.

For `CC/C=C\C/C=C\C/C=C\CCCCCCCC(=O)OC` [METHYL LINOLENATE], the GI50 in assay [1] was > 100 µM (inactive); in assay [14], > 100 µM (inactive); in assay [2], 18.9 µM (inactive); in assay [3], > 100 µM (inactive); in assay [13], > 100 µM (inactive); in assay [4], > 100 µM (inactive). The GI50 in assay [5], in assay [6] and in assay [8] was > 100 µM (inactive) in each case.

Turning to `O=C1NC(O)CCN1C1OC(CO)C(O)C1O` (stereo unspecified), the GI50 in assay [1] was > 250 µM (inactive); in [14], > 250 µM (inactive); in [2], > 136 µM (inactive); in assay [3], > 250 µM (inactive); in assay [13], > 250 µM (inactive); in assay [4], > 250 µM (inactive). The GI50 in assay [5] is > 79.8 µM (inactive); in assay [6], > 250 µM (inactive); in [8], > 250 µM (inactive); in [9], > 250 µM (inactive); in [11] it was > 68.7 µM (inactive).

As for `CC(C)NC(=O)OCc1c(COC(=O)NC(C)C)c(-c2ccc[n+](COC(=O)C3CCCCC3)c2)n2c1CCC2`, the GI50 in [1] was 40.6 µM (inactive); in assay [14], 36.6 µM (inactive); in assay [2] it was 31.6 µM (inactive); in assay [3] it was 47.8 µM (inactive); in assay [13], 39.4 µM (inactive); in assay [5], 55.6 µM (inactive). Besides, the GI50 was 20.7 µM (inactive) in assay [6]; 48.6 µM (inactive) in assay [15]; > 100 µM (inactive) in assay [16]; > 100 µM (inactive) in assay [7]; 57.8 µM (inactive) in assay [17]; 48.1 µM (inactive) in assay [18]. The GI50 was > 100 µM (inactive) in assay [8], 28.1 µM (inactive) in assay [12], > 100 µM (inactive) in assay [19] and 40.5 µM (inactive) in assay [20].
